In publication PMC11212140, “Molecular Bidents with Two Electrophilic Warheads as a New Pharmacological Modality” (ACS Central Science, 2024):

Key:
Test in all cases: KiNativ profiling in H3255 cells
Assay type in all cases: cell-based, human
[1] = test system: PI4KA, PI4KAP2; conditions: 2.5 µM; ATP; SGTPMQSAAKAPYLAK
Method in brief: (§1)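 Live-cell treatment: 2.5 μM ZNL-0056 or DMSO, 2 h, H3255, 6.5x10^6 cells/condition; cold PBS + protease/phosphatase inhibitors; pellet 1350 g, 4 ℃, 5 min; flash-freeze in LN2; KiNativ at ActivX.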

[2] = test system: T1, YES; conditions: 2.5 µM; Lys1; VAIKTLKPGTMMPEAFLQEAQIMK
T1 construct: purchased ActivX Biosciences (KiNativ)
Method in brief: as §1

[3] = test system: T2, ATM; conditions: 2.5 µM; ATP; QLVKGRDDLRQDAVMQQVFQMCNTLLQR
T2 construct: purchased ActivX Biosciences (KiNativ)
Method in brief: as §1

[4] = test system: T3, PI4KB; conditions: 2.5 µM, ATP
T3 construct: purchased ActivX Biosciences (KiNativ)
Method in brief: as §1

[5] = test system: T4, p38b; conditions: 2.5 µM; Other; QELNKTVWEVPQR
T4 construct: purchased ActivX Biosciences (KiNativ)
Method in brief: as §1

[6] = test system: T5, MAP2K6; conditions: 2.5 µM
T5 construct: purchased ActivX Biosciences (KiNativ)
Method in brief: as §1

[7] = test system: PCTAIRE2, PCTAIRE3; conditions: 2.5 µM; Lys1; SKLTENLVALKEIR
Method in brief: as §1

[8] = test system: T6, RSK2 domain2; conditions: 2.5 µM; Lys2; DLKPSNILYVDESGNPESIR
T6 construct: RSK2 domain2; purchased ActivX Biosciences (KiNativ)
Method in brief: as §1

[9] = test system: ABL, ARG; conditions: 2.5 µM
Method in brief: as §1

[10] = test system: T7, PKCi; conditions: 2.5 µM
T7 construct: purchased ActivX Biosciences (KiNativ)
Method in brief: as §1

[11] = test system: T8, MLKL; conditions: 2.5 µM; Lys1; APVAIKVFK
T8 construct: purchased ActivX Biosciences (KiNativ)
Method in brief: as §1

[12] = test system: T9, CSK; conditions: 2.5 µM
T9 construct: purchased ActivX Biosciences (KiNativ)
Method in brief: as §1

[13] = test system: T10, TBK1; conditions: 2.5 µM; Lys1; TGDLFAIKVFNNISFLRPVDVQMR
T10 construct: purchased ActivX Biosciences (KiNativ)
Method in brief: as §1

[14] = test system: T11, ACK; conditions: 2.5 µM
T11 construct: purchased ActivX Biosciences (KiNativ)
Method in brief: as §1

[15] = test system: T12, RIPK2; conditions: 2.5 µM; Lys1; VQVAVKHLHIHTPLLDSER
T12 construct: purchased ActivX Biosciences (KiNativ)
Method in brief: as §1

[16] = test system: p38d, p38g; conditions: 2.5 µM; Lys2; DLKPGNLAVNEDCELK
Method in brief: as §1

[17] = test system: T13, ROCK1; conditions: 2.5 µM; Other; KLQLELNQER
T13 construct: purchased ActivX Biosciences (KiNativ)
Method in brief: as §1

[18] = test system: T14, LATS1; conditions: 2.5 µM
T14 construct: purchased ActivX Biosciences (KiNativ)
Method in brief: as §1

[19] = test system: T15, MST1; conditions: 2.5 µM; Lys1; ETGQIVAIKQVPVESDLQEIIK
T15 construct: purchased ActivX Biosciences (KiNativ)
Method in brief: as §1

[20] = test system: T16, ULK1; conditions: 2.5 µM; Lys2; DLKPQNILLSNPAGR
T16 construct: purchased ActivX Biosciences (KiNativ)
Method in brief: as §1

[21] = test system: T17, p70S6K; conditions: 2.5 µM
T17 construct: purchased ActivX Biosciences (KiNativ)
Method in brief: as §1

[22] = test system: PKD1, PKD2; conditions: 2.5 µM; Lys2; NIVHCDLKPENVLLASADPFPQVK
Method in brief: as §1

[23] = test system: T18, MAPKAPK3; conditions: 2.5 µM; ATP Loop; QVLGLGVNGKVLECFHR
T18 construct: purchased ActivX Biosciences (KiNativ)
Method in brief: as §1

[24] = test system: ZC1/HGK, ZC2/TNIK, ZC3/MINK; conditions: 2.5 µM; Lys2; DIKGQNVLLTENAEVK
Method in brief: as §1

[25] = test system: T19, eEF2K; conditions: 2.5 µM; ATP; YIKYNSNSGFVR
T19 construct: purchased ActivX Biosciences (KiNativ)
Method in brief: as §1

[26] = test system: T20, Erk1; conditions: 2.5 µM; Lys2; DLKPSNLLINTTCDLK
T20 construct: purchased ActivX Biosciences (KiNativ)
Method in brief: as §1

[27] = test system: T21, MSK2 domain1; conditions: 2.5 µM
T21 construct: MSK2 domain1; purchased ActivX Biosciences (KiNativ)
Method in brief: as §1

[28] = test system: T22, RSK2 domain1; conditions: 2.5 µM
T22 construct: RSK2 domain1; purchased ActivX Biosciences (KiNativ)
Method in brief: as §1

[29] = test system: T23, EphB2; conditions: 2.5 µM; Activation Loop; FLEDDTSDPTYTSALGGKIPIR
T23 construct: purchased ActivX Biosciences (KiNativ)
Method in brief: as §1

[30] = test system: T24, MAP3K1; conditions: 2.5 µM; Lys2; DVKGANLLIDSTGQR
T24 construct: purchased ActivX Biosciences (KiNativ)
Method in brief: as §1

[31] = test system: T25, SRPK1; conditions: 2.5 µM; Lys2; IIHTDIKPENILLSVNEQYIR
T25 construct: purchased ActivX Biosciences (KiNativ)
Method in brief: as §1

[32] = Activation Loop, LMTGDTYTAHAGAKFPIK
[33] = Activation Loop, VSDFGLTKEASSTQDTGKLPVK
[34] = Lys1, VAVKCIKNDATAQAFLAEASVMTQLR
[35] = Lys1, TVSVAVKCLKPDVLSQPEAMDDFIR
[36] = Activation Loop, LTDFGLSKESIDHEKK

Work on `C=CC(=O)Nc1cc(C(=O)Nc2nc3cccc(C)c3n2[C@@H]2CCCCN(C(=O)C=C)C2)cs1` [ZNL-0056] yielded an Inhibition [1] of -23.5%, an Inhibition [2] of -13.4% and an Inhibition [3] of -1.9%. It also gave an Inhibition ([4]; LLSVIVKCGDDLRQELLAFQVLK) of -9.0%, an Inhibition ([4]; VPHTQAVVLNSKDK) of -25.9% and an Inhibition [5] of -8.8%. The Inhibition ([6]; Lys1, HVPSGQIMAVKR) was -13.1%, the Inhibition ([6]; Lys2, DVKPSNVLINALGQVK) was -0.186% and the Inhibition [7] was -16.7%. It also gave an Inhibition [8] of 4.0%, an Inhibition [9, 32] of -3.8% and an Inhibition ([9]; Lys1, YSLTVAVKTLKEDTMEVEEFLK) of 17.1%. It also gave an Inhibition ([10]; Lys1, IYAMKVVK) of 2.3%, an Inhibition ([10]; Lys2, DLKLDNVLLDSEGHIK) of 15.4% and an Inhibition [11] of 4.5%. The Inhibition [12, 33] was -1.9%, the Inhibition ([12]; Lys1, VAVKCIK) was -0.8% and the Inhibition [12, 34] was 6.7%. For the same molecule, the Inhibition [13] was 5.3%, the Inhibition ([14]; Activation Loop, KVPFAWCAPESLK) was -21.4% and the Inhibition [14, 35] was -6.2%. It also gave an Inhibition [15] of -9.6%, an Inhibition [16] of -20.6% and an Inhibition [17] of -20.4%. The Inhibition ([18]; Lys1, ALYATKTLR) was 3.8%, the Inhibition ([18]; Lys2, DIKPDNILIDR) was 20.9% and the Inhibition [19] was -5.5%. The Inhibition [20] was 3.5%, the Inhibition ([21]; Lys1, IFAMKVLK) was 23.2% and the Inhibition ([21]; Lys2, DLKPENIMLNHQGHVK) was -10.8%. The Inhibition [22] was 7.5%, the Inhibition [23] was 4.1% and the Inhibition [24] was 9.3%. For the same molecule, the Inhibition [25] was -31.5%, the Inhibition [26] was -17.6% and the Inhibition ([27]; Lys1, LYAMKVLR) was -2.6%. It also gave an Inhibition ([27]; Lys2, DLKLENVLLDSEGHIVLTDFGLSK) of 18.7%, an Inhibition [28, 36] of -17.5% and an Inhibition ([28]; Lys1, QLYAMKVLK) of 0.2%. For the same molecule, the Inhibition [29] was -8.5%, the Inhibition [30] was -17.1% and the Inhibition [31] was 2.6%.
With `C=CC(=O)Nc1cc(Nc2nccc(-c3cn(C)c4ccccc34)n2)c(OC)cc1N(C)CCN(C)C` [Osimertinib, osimertinib, reference compound] the Inhibition [1] was 30.1%, the Inhibition [2] was 19.6% and the Inhibition [3] was 24.6%. For the same molecule, the Inhibition ([4]; LLSVIVKCGDDLRQELLAFQVLK) was -20.5%, the Inhibition ([4]; VPHTQAVVLNSKDK) was 21.1% and the Inhibition [5] was 7.2%. It also gave an Inhibition ([6]; Lys1, HVPSGQIMAVKR) of 6.1%, an Inhibition ([6]; Lys2, DVKPSNVLINALGQVK) of -10.0% and an Inhibition [7] of -33.1%. The Inhibition [8] was -16.8%, the Inhibition [9, 32] was 8.4% and the Inhibition ([9]; Lys1, YSLTVAVKTLKEDTMEVEEFLK) was 4.3%. For the same molecule, the Inhibition ([10]; Lys1, IYAMKVVK) was 5.6%, the Inhibition ([10]; Lys2, DLKLDNVLLDSEGHIK) was -27.3% and the Inhibition [11] was -10.0%. It also gave an Inhibition [12, 33] of -3.3%, an Inhibition ([12]; Lys1, VAVKCIK) of -17.2% and an Inhibition [12, 34] of 16.1%. It also gave an Inhibition [13] of -18.1%, an Inhibition ([14]; Activation Loop, KVPFAWCAPESLK) of 27.2% and an Inhibition [14, 35] of 25.7%. The Inhibition [15] was 51.7%, the Inhibition [16] was 11.1% and the Inhibition [17] was -7.6%. It also gave an Inhibition ([18]; Lys1, ALYATKTLR) of -8.1%, an Inhibition ([18]; Lys2, DIKPDNILIDR) of 5.0% and an Inhibition [19] of -24.9%. It also gave an Inhibition [20] of -9.0%, an Inhibition ([21]; Lys1, IFAMKVLK) of -2.7% and an Inhibition ([21]; Lys2, DLKPENIMLNHQGHVK) of -39.3%. The Inhibition [22] was -8.5%, the Inhibition [23] was -14.1% and the Inhibition [24] was 16.3%. The Inhibition [25] was -9.7%, the Inhibition [26] was -0.641% and the Inhibition ([27]; Lys1, LYAMKVLR) was -36.1%. It also gave an Inhibition ([27]; Lys2, DLKLENVLLDSEGHIVLTDFGLSK) of 5.0%, an Inhibition [28, 36] of -31.9% and an Inhibition ([28]; Lys1, QLYAMKVLK) of 3.3%. It also gave an Inhibition [29] of 1.1%, an Inhibition [30] of 8.4% and an Inhibition [31] of 2.2%.
